Data reported in patent US4735792A, “Radioiodinated maleimides and use as agents for radiolabeling antibodies” (The United States of America as represented by the United …, priority 1987, dated 1988).
Like-named read-outs stand apart in the source and are kept apart here.

Columns and labels:
albumin = assay: Preliminary studies of binding with albumin
IgG = assay: Preliminary studies of binding with IgG
human γ-globulin = assay: Binding to human γ-globulin (activity remaining in aqueous portion after ether extraction; TLC); conditions: TLC of aqueous portion, radioactivity with a polar band
Experimental: (§1) Samples of bovine albumin (45 mg/ml, 10 ml) and human γ-globulin (6.7 mg/ml. 10 ml) were prepared in phosphate buffer and 0.15 NaCl solution (PBS). A 10 ml sample of PBS was used as control. [^125 I]-IPM (10 μCi) in 100 λ DMSO was added to each sample and incubated for 30 min at 37° C. The samples were repeatedly extracted with ethyl ether. The unbound activity as [^125 I]-IPM was extracted with ethyl ether. The activity remaining in the aqueous portion was considered to be bound with the proteins.

[1] = as above; conditions: gamma-globulin in pbs; human γ-globulin 6.7 mg/ml in PBS, 30 min at 37° C., after ether extraction; read-out: activity remaining in the aqueous portion (bound with protein), γ-globulin (converted)
Experimental: as §1

bovine albumin = assay: Binding to bovine albumin (activity remaining in aqueous portion after ether extraction; TLC); conditions: TLC of aqueous portion, radioactivity with a polar band
Experimental: as §1

[2] = as above; conditions: bovine albumin 45 mg/ml in PBS, 30 min at 37° C., after ether extraction; read-out: activity remaining in the aqueous portion (bound with protein), albumin (converted)
Experimental: as §1

platelet proteins = assay: Preliminary studies of binding with platelet proteins
red blood cells = assay: Blood fractionation (plasma, red and white blood cells) studies; format: in vivo, rat; conditions: rats injected with [^125 I]4
From the text: Blood fractionation (plasma, red and white blood cells) studies indicated 88.9% of the blood activity to be associated with red blood cells.

[3] = Tissue distribution of radioactivity after intravenous administration in rats; format: in vivo, female Fischer 344 rats (printed "femal Fischer 344 rats"); conditions: for tissue uptake at 5 min / tissue uptake at 0.5 h / tissue uptake at 1 h: rat, iv; for tissue uptake at 5 min: 5 min after i.v. injection; for tissue uptake at 0.5 h: 30 min after i.v. injection; for tissue uptake at 1 h: 60 min after i.v. injection; for binding with the blood, tissue distribution (in words) / thyroid uptake / thyroid levels of radioactivity (in words): rats; for thyroid uptake / thyroid levels of radioactivity (in words): indicative of in vivo stability of radiolabel toward deiodination
Experimental: 4-[^125 I]iodoaniline (7.4 mCi sp. act. 700 mCi/mmol) prepared following structure described in Step 1 of Example 1 was coupled with maleic anhydride (9.5 mg) in glacial acetic acid (0.15 ml) at room temperature. The radioiodinated compound, [^125 I]3 isolated by silica gel column chromatography was refluxed with acetic anhydride
The distribution of radiactivity in tissues of femal Fischer 344 rats
(§2) after intravenous administration of [^125 I]4.^a
^a Animals had body weight range of 121-139 gm. Each animal received
3.7 ^o Ci of [^125 I]4 by tail vein injection.
The distribution of radioactivity in tissues of femal Fischer 344 rats
as §2
(75mg) and anhydrous (fused) sodium acetate (12 mg) in benzene (1.0 ml) for 3 h. The product, [^125 I]4 (3.99 mCi, 56 percent radiochemical yield based on [^125 I]3), was isolated by silica gel column chromatography. The radioactive compound [^125 I]4 was identical with an unlabeled sample of 4.

[4] = blood, Table 1, blood, read-out: Mean percent injected dose/gm, Blood
[5] = blood, Table 2, blood, read-out: Mean percent injected dose/gm, Blood
[6] = heart, Table 1, heart, read-out: Mean percent injected dose/gm, Heart
[7] = heart, Table 2, heart, read-out: Mean percent injected dose/gm, Heart
[8] = kidneys, Table 1, kidneys, read-out: Mean percent injected dose/gm, Kidneys
[9] = kidneys, Table 2, kidneys, read-out: Mean percent injected dose/gm, Kidneys
[10] = liver, Table 1, liver, read-out: Mean percent injected dose/gm, Liver
[11] = liver, Table 2, liver, read-out: Mean percent injected dose/gm, Liver
[12] = lungs, Table 1, lungs, read-out: Mean percent injected dose/gm, Lungs
[13] = lungs, Table 2, lungs, read-out: Mean percent injected dose/gm, Lungs
[14] = thyroid, Table 1, thyroid, read-out: Mean percent injected dose/gm, Thyroid
[15] = thyroid, Table 2, thyroid, read-out: Mean percent injected dose/gm, Thyroid

In the case of `O=C1C=CC(=O)N1c1ccc([125I])cc1` [[^125 I]4, N-(p-[^125 I]iodophenyl)maleimide], the “binding with albumin (in words)” value (albumin) was “appears to bind”, the “binding with IgG (in words)” value (IgG) was “appears to bind” and the “binding with γ-globulin by TLC (in words)” value (human γ-globulin) was “significant binding”. The fraction unbound at 0.5 h [1] was roughly 0.6, the “binding with albumin by TLC (in words)” value (bovine albumin) was “significant binding” and the fraction unbound at 0.5 h [2] was roughly 0.4. For the same molecule, the “binding with platelet proteins (in words)” value (platelet proteins) was “appears to bind”, the “blood activity associated with red blood cells” value (red blood cells) was 88.9% and the tissue uptake at 5 min [3, 4] was 8.84 %ID/g. The tissue uptake at 0.5 h [3, 4] was 8.44 %ID/g, the tissue uptake at 1 h [3, 4] was 7.56 %ID/g and the tissue uptake at 5 min [3, 5] was 57.6 %ID/g. For the same molecule, the tissue uptake at 0.5 h [3, 5] was 54.1 %ID/g, the tissue uptake at 1 h [3, 5] was 48.6 %ID/g and the tissue uptake at 5 min [3, 6] was 1.45 %ID/g. For the same molecule, the tissue uptake at 0.5 h [3, 6] was 1.81 %ID/g, the tissue uptake at 1 h [3, 6] was 1.74 %ID/g and the tissue uptake at 5 min [3, 7] was 0.61 %ID/g. For the same molecule, the tissue uptake at 0.5 h [3, 7] was 0.79 %ID/g, the tissue uptake at 1 h [3, 7] was 0.74 %ID/g and the tissue uptake at 5 min [3, 8] was 2.15 %ID/g. For the same molecule, the tissue uptake at 0.5 h [3, 8] was 2.12 %ID/g, the tissue uptake at 1 h [3, 8] was 2.07 %ID/g and the tissue uptake at 5 min [3, 9] was 2.17 %ID/g. The tissue uptake at 0.5 h [3, 9] was 2.18 %ID/g, the tissue uptake at 1 h [3, 9] was 2.21 %ID/g and the tissue uptake at 5 min [3, 10] was 1.9 %ID/g. For the same molecule, the tissue uptake at 0.5 h [3, 10] was 1.73 %ID/g, the tissue uptake at 1 h [3, 10] was 1.5 %ID/g and the tissue uptake at 5 min [3, 11] was 10.2 %ID/g. The tissue uptake at 0.5 h [3, 11] was 7.85 %ID/g, the tissue uptake at 1 h [3, 11] was 7.05 %ID/g and the tissue uptake at 5 min [3, 12] was 2.04 %ID/g. The tissue uptake at 0.5 h [3, 12] was 2.52 %ID/g, the tissue uptake at 1 h [3, 12] was 2.31 %ID/g and the tissue uptake at 5 min [3, 13] was 1.76 %ID/g. For the same molecule, the tissue uptake at 0.5 h [3, 13] was 1.89 %ID/g, the tissue uptake at 1 h [3, 13] was 1.74 %ID/g and the tissue uptake at 5 min [3, 14] was 13.7 %ID/g. For the same molecule, the tissue uptake at 0.5 h [3, 14] was 21.7 %ID/g, the tissue uptake at 1 h [3, 14] was 20.5 %ID/g and the tissue uptake at 5 min [3, 15] was 0.13 %ID/g. The tissue uptake at 0.5 h [3, 15] was 0.2 %ID/g, the tissue uptake at 1 h [3, 15] was 0.19 %ID/g and the “binding with the blood, tissue distribution (in words)” value (“binding with the blood” for short) [3] was “high levels of radioactivity were associated with the blood”. The “thyroid uptake / thyroid levels of radioactivity (in words)” value ([3]; listed as IPM) was “consistently low”, the “thyroid uptake / thyroid levels of radioactivity (in words)” value ([3]; listed as maleimide agent) was “low” and the “binding with the blood” value ([3]; listed as IPM) was “preferential binding”. The “binding with the blood” value ([3]; listed as maleimide agent) was “preferential binding with the blood”.
